Test results published in patent US6800481B1, “Stable macroscopic membranes formed by self-assembly of amphiphilic peptides and uses therefor” (priority 1992, dated 2004).
Entries after “also recorded” stand apart in the source; their conditions may differ.

What was measured:
[1] = type: physicochemical
Method: Once formed, the macroscopic membranes are stable in a variety of aqueous solutions, including water, phosphate-buffered saline (PBS), tissue culture medium, serum, and also in ethanol, and can be transferred to and stored in any of these liquids. […] The membranes can be transferred from one solution to another using a solid support such as a spatula. They can be broken by cutting, tearing or shearing.
The stability of the membranes was also tested under a range of temperature, pH and chemical conditions. For these experiments, membranes were formed by adding 20 μl of a 0.5 mM stock solution of EAK16 to 0.5 ml of PBS, and transferred into water or other solutions at test conditions.
The membranes could be frozen and thawed, although care was required in handling the frozen membranes which were brittle. In boiling water, the membranes tended to be sheared by the mechanical agitation. […] (FIGS. 9A and 9B). […] Such strong thermal stability of the defined β-sheet structure of EAK16 is unusual for a small peptide. For example, these findings contrast with the α-helix-forming sixteen residue (Ala, Glu, Lys)-containing peptides studied previously (Marqusee and Baldwin, 1987).
The EAK16 membranes were also tested in water at pH 1.5, 3, 7 and 11 at room temperature for at least a week and at 95° C. for about 4 hours. The membranes were unaffected at these pH. […] It is possible that the complementary interactions between the Glu and Lys side-chains are strong even when the carboxyl groups of the Glu residues have been protonated at pH 1.5 and 3, due to their ability to form hydrogen bonds even when protonated.
The EAK16 membranes were further tested for resistance to chemical denaturation under the following conditions: 1% and 10% sodium dodecyl sulfate (SDS); 1, 2, 3, 4, 5, 6 and 7 M guanidine-HCl; and 1, 2, 3, 4, 5, 6, 7 and 8 M urea. […] The membranes were also tested at 95° C. for 4 hours in 10% SDS; 7 M guanidine-HCl; and at 8 M urea.

[2] = Testing of peptides for macroscopic membrane formation (phase-contrast microscope, Congo Red staining); type: physicochemical
Text: The effect of length and sequence on membrane formation was examined using several peptides (Table 1 and Example 3). […] Very long peptides, e.g., of about 200 amino acids, may encounter problems due to insolubility and intramolecular interactions which destabilize membrane formation. […] The optimal lengths for membrane formation will probably vary with the amino acid composition.
The EAK12 and EAK16 tested for membrane formation were acetylated and aminylated at both N- and C-terminal ends. […] The peptides were initially dissolved in water (5 mg/ml) or in 23% acetonitrile (10 mg/ml). A volume of 5-10 microliters of the dissolved peptides were applied to the DMEM medium, PBS or water. The formation of the membrane was first observed under a phase-contrast microscope and then, by the naked eye after staining with Congo Red.

PC12NGF = test: Cell attachment to biopolymer sheets, normal or Ca++ and Mg++ free medium (Table 6); type: cell-based, rat; set-up: key: ++++: strong attachment; +++: moderate attachment; ++: weak attachment; +/−: little or no attachment
Method: (§1) Cells were pretreated in serum-free medium containing 30 μg/ml cyclohexamide for 2 hours before introduction to the peptide membranes. The cells used for the calcium and magnesium-free condition were pre-equilibrated in Ca^++ and Mg^++ free medium containing 5 mM EDTA for 15 minutes before introduction to the peptide membranes. Cells were allowed to attach to the peptide membranes for 30 minutes, 1 and 8 hours at 37° C. The attached cells were shaken for […] on a rotary rocker at 60 r.p.m., then scored under phase contrast microscopy.

PC12 = test: as above; type: cell-based, rat; set-up: key: ++++: strong attachment; +++: moderate attachment; ++: weak attachment; +/−: little or no attachment
Method: as §1

3T3 fibroblast cells = test: Cell attachment to biopolymer sheets, with serum or serum-free + cyclohexamide (Table 5); type: cell-based, mouse; set-up: key: ++++: strong attachment; +++: moderate attachment; ++: weak attachment; +/−: little or no attachment
Method: 3T3 fibroblast cells were introduced to membranes of RAD16 and EAK16 in normal serum-containing medium or in serum-free medium containing 30 μg/ml cyclohexamide (cells used for this condition were pretreated in this medium for 2 hours before plating). Cells were allowed to attach to the membranes for 30 minutes, 1 and 8 hours at 37° C. The attached cells were shaken for 10 minutes on a rotary rocker at 60 r.p.m., then scored under phase contrast microscopy. The decrease in cells attached to the membrane in the serum-free condition reflects cell loss due to serum deprivation.

PC12 cells = test: In vitro neurite outgrowth on peptide membranes; type: cell-based, rat; set-up: Neurite outgrowth, NGF treated, 14 days: key to the marks not given beside the values
Method: The suitability of these materials for supporting in vitro neurite outgrowth was tested by treating biomaterial-attached PC12 cells with nerve growth factor (NGF). This treatment induces PC12 cells to differentiate into sympathetic neurons which can send out long processes called neurites. There was a marked difference in the neurite promoting properties of the two materials tested (EAK16 and RAD16).
Nerve growth factor differentiated PC12 cells have been used extensively in studies of neurite outgrowth. PC12 cells upregulate the number of calcium-dependent and -independent cell adhesion receptors in response to nerve growth factor. Cell attachment and neurite outgrowth from nerve growth factor differentiated PC12 cells was examined on membranes of RAD16 and EAK16 in order to determine whether membranes containing RGD-like sequences would preferentially support these cell activities. Neurite outgrowth on peptide membranes is of interest for potential applications of nerve repair.
Untreated PC12 cells were introduced to peptide membranes of EAK16 and RAD16 suspended in 85% RMMP1, 10% heat inactivated horse serum, 5 fetal bovine serum. Half of the cells were treated with nerve growth factor (50 ng/ml, NGF) and were supplemented with NGF every 3-4 days for 14 days. […] The neurite outgrowth reached greater than 400 μm in length, approximately 15-20 times the cell body, following the contour of the matrices in a three dimensional network.

[3] = system: NGF differentiated PC12 cells, retonic acid-differentiated human neuroblastoma and mouse cerebellum granule cells; test: Neurite outgrowth on biopolymers, several neuronal cell types; type: cell-based
Text: The invention further relates to the regeneration of nerves with filaments of the membranes of the present invention. Nerve regeneration can be promoted and directed by transplanting filaments of RAD16 along the correct path to their targets. This would be extremely useful for patients with severed peripheral nerves. Such a technology could be refined to help people with spinal cord injuries.

3T3 = test: Cell attachment to biopolymer sheets, normal or Ca++ and Mg++ free medium (Table 6); type: cell-based, mouse; set-up: key: ++++: strong attachment; +++: moderate attachment; ++: weak attachment; +/−: little or no attachment; settings: 3T3, 30 min, Normal Ca^++ & Mg^++ serum-free + Cyclohex
Method: as §1

[4] = system: striatum (a brain structure); test: In vivo injection into the striatum, gliosis (nissl stain); settings: rats, 1 μl into the striatum
Method: Three hundred g rats were anesthesized with equithesin (0.3 ml/100 g body weight). The skull was surgically exposed and small burr holes were stereotaxically drilled at AP=+1.5, ML=+/−3.0 relative to bregma. An injection cannula was placed at a depth of −4.5 in the striatum (a brain structure). Experimental rats received 1 μl of EAK16 or RAD16 injected into the striatum. Control rats received similar injections of ibotenic acid, a well characterized toxin, as a positive contorl for gliosis, the experimental rats also received 35 μl injection of EAK16 or RAD16 into the thigh muscle (n=2 for each group). The rate were allowed to recover, then sacrificed for tissue harvest.

[5] = NGF-treated PC12 cells, 14 days

**Q.** For H-AAAADADARARADAD-OH [RAD16], which “stability of membranes in water or PBS” value [1] is on record?
**A.** stable in water or PBS for at least a week

**Q.** What about the “formation of macroscopic membranes” value ([2]; identical conditions, in words) of the same compound?
**A.** found to form macroscopic membranes

**Q.** And the “membranous structure in Water” value ([2]; water)?
**A.** −

**Q.** What about the cell attachment (PC12NGF; 30 min, Ca^++ & Mg^++ free, EDTA serum-free + Cyclohex) of the same compound?
**A.** ++++

**Q.** What about the cell attachment (PC12NGF; 30 min, Normal Ca^++ & Mg^++ serum-free + Cyclohex) of the same compound?
**A.** ++++

**Q.** And the cell attachment (PC12NGF; 60 min, Ca^++ & Mg^++ free, EDTA serum-free + Cyclohex)?
**A.** ++++

**Q.** What about the cell attachment (PC12NGF; 60 min, Normal Ca^++ & Mg^++ serum-free + Cyclohex) of the same compound?
**A.** ++++

**Q.** What about the cell attachment (PC12; PC12, 30 min, Ca^++ & Mg^++ free, EDTA serum-free + Cyclohex) of the same compound?
**A.** ++++

**Q.** What about the cell attachment (PC12; PC12, 30 min, Normal Ca^++ & Mg^++ serum-free + Cyclohex) of the same compound?
**A.** ++++

**Q.** And the cell attachment (PC12; PC12, 60 min, Ca^++ & Mg^++ free, EDTA serum-free + Cyclohex)?
**A.** ++++

**Q.** And the cell attachment (PC12; PC12, 60 min, Normal Ca^++ & Mg^++ serum-free + Cyclohex)?
**A.** ++++

**Q.** What about the cell attachment (3T3 fibroblast cells; 3T3, 30 min, medium with serum, no cyclohexamide) of the same compound?
**A.** ++++

**Q.** And the cell attachment (3T3 fibroblast cells; 3T3, 30 min, serum-free medium, + cyclohexamide)?
**A.** ++++

**Q.** And the cell attachment (3T3 fibroblast cells; 3T3, 60 min, medium with serum, no cyclohexamide)?
**A.** ++++

**Q.** And the cell attachment (3T3 fibroblast cells; 3T3, 60 min, serum-free medium, + cyclohexamide)?
**A.** ++++

**Q.** And the cell attachment (3T3 fibroblast cells; 3T3, 8 hrs, medium with serum, no cyclohexamide)?
**A.** ++++

**Q.** What about the cell attachment (3T3 fibroblast cells; 3T3, 8 hrs, serum-free medium, + cyclohexamide) of the same compound?
**A.** ++

**Q.** And the “neurite outgrowth of NGF-treated PC12 cells, in words” value (PC12 cells; NGF-treated PC12 cells on membranes)?
**A.** robust neurite processes; also recorded: Robust neurite outgrowth

**Q.** And the neurite outgrowth length (PC12 cells; [5])?
**A.** greater than 400 μm

**Q.** What about the “neurite outgrowth length relative to the cell body” value (PC12 cells; [5]) of the same compound?
**A.** 15-20 times the cell body

**Q.** What about the “Neurite outgrowth, untreated, 14 days” value (PC12 cells; PC12 cells without NGF, 14 days) of the same compound?
**A.** − (no neurite outgrowth)

**Q.** And the “Neurite outgrowth, NGF treated, 14 days” value (PC12 cells; PC12 cells, NGF 50 ng/ml, 14 days)?
**A.** ++++

**Q.** And the “neurite outgrowth on biopolymers” value [3]?
**A.** occurs on RAD16-based biopolymers

**Q.** And the cell attachment (3T3)?
**A.** ++++

**Q.** With `N[C@H](C(=O)O)c1cc(=O)[nH]o1` [ibotenic acid, reference compound] as the compound, how does the “gliosis / gliotic scarring after brain injection” value [4] read?
**A.** robust gliotic scarring around the injection site
